According to the NIST ThermoML archive (doi:10.1016/j.jct.2017.02.004):
± gives the expanded uncertainty stated by the source.

Assay: mn = molality of the nth substance listed, in mol/kg
Conditions: 100 kPa, Liquid; for speed of sound: Frequency=3 MHz, Single path-length method; for mass density: Vibrating tube method

[Cl-].[Li+] [lithium chloride] + O
Conditions | mass density, 288.15 K [kg/m3] | mass density, 293.15 K [kg/m3] | mass density, 298.15 K [kg/m3] | mass density, 303.15 K [kg/m3] | mass density, 308.15 K [kg/m3] | speed of sound, 288.15 K [m/s] | speed of sound, 293.15 K [m/s] | speed of sound, 298.15 K [m/s] | speed of sound, 303.15 K [m/s] | speed of sound, 308.15 K [m/s]
m1 = 0.05 | 1000.33 ± 0.31 | 999.427 ± 0.31 | 998.265 ± 0.31 | 996.862 ± 0.31 | 995.242 ± 0.31 | 1469.6 ± 1 | 1485.6 ± 1 | – | 1512 ± 1 | –
m1 = 0.1002 | 1001.57 ± 0.31 | 1000.66 ± 0.31 | 999.489 ± 0.31 | 998.083 ± 0.31 | – | 1472.7 ± 1 | 1488.6 ± 1 | 1502.6 ± 1 | 1514.8 ± 1 | 1525.3 ± 1
m1 = 0.1498 | 1002.78 ± 0.31 | 1001.87 ± 0.31 | 1000.69 ± 0.31 | 999.281 ± 0.31 | 997.651 ± 0.31 | 1475.8 ± 1 | 1491.6 ± 1 | 1505.5 ± 1 | 1517.6 ± 1 | –
m1 = 0.1999 | 1004 ± 0.31 | 1003.08 ± 0.31 | 1001.89 ± 0.31 | 1000.48 ± 0.31 | 998.845 ± 0.31 | 1478.8 ± 1 | 1494.6 ± 1 | 1508.3 ± 1 | 1520.3 ± 1 | 1530.7 ± 1
m1 = 0.2502 | 1005.22 ± 0.31 | 1004.28 ± 0.31 | 1003.1 ± 0.31 | 1001.68 ± 0.31 | 1000.04 ± 0.31 | 1482 ± 1.1 | 1497.6 ± 1 | 1511.2 ± 1 | – | –
m1 = 0.2999 | 1006.41 ± 0.31 | 1005.47 ± 0.31 | 1004.28 ± 0.31 | 1002.86 ± 0.31 | 1001.21 ± 0.31 | 1485 ± 1 | 1500.5 ± 1 | 1514.1 ± 1 | 1525.9 ± 1 | 1536 ± 1
m1 = 0.3503 | 1007.63 ± 0.31 | 1006.67 ± 0.31 | 1005.47 ± 0.31 | 1004.05 ± 0.31 | 1002.4 ± 0.31 | 1488.1 ± 1 | 1503.5 ± 1 | 1516.9 ± 1 | 1528.6 ± 1 | 1538.7 ± 1
m1 = 0.4 | 1008.83 ± 0.31 | 1007.86 ± 0.31 | 1006.65 ± 0.31 | 1005.22 ± 0.31 | 1003.57 ± 0.31 | 1491.1 ± 1.1 | 1506.3 ± 1 | 1519.6 ± 1 | 1531.2 ± 1 | 1541.2 ± 1
m1 = 0.4503 | 1010.02 ± 0.31 | 1009.04 ± 0.31 | 1007.83 ± 0.31 | 1006.4 ± 0.31 | 1004.74 ± 0.31 | 1494.2 ± 1.1 | 1509.2 ± 1 | 1522.4 ± 1 | 1533.9 ± 1 | 1543.8 ± 1
m1 = 0.5 | 1011.21 ± 0.31 | 1010.21 ± 0.31 | 1008.99 ± 0.31 | 1007.56 ± 0.31 | 1005.9 ± 0.31 | 1497.2 ± 1.1 | 1512.1 ± 1 | 1525.1 ± 1 | 1536.6 ± 1 | 1546.4 ± 1
